Results from US20240315991A1, “USES OF HNF4 ALPHA AGONISTS” (Sanford Burnham Prebys Medical Discovery Institute, priority 2023, published 2024).

Test system: TNFα mRNA
Test: RT-PCR of primary human hepatocytes, TNFα
Type: cell-based
Settings: HEP-fat media, NCT 5, 15, and 40 μM, dose-responsive manner, FIG. 5F
Method: Primary human hepatocytes. Experiments with primary human hepatocytes were performed by CN-Bio (Cambridge, UK). Briefly, primary human hepatocytes (PHHs), human Kupffer cells (HKs) and human stellate cells (HSCs) were seeded onto CN-Bio's PhysioMimix LC12 MPS culture plates at 6×10^5 cells for PHHs and 6×10^4 cells for HKs and HSCs in 1.6 ml of CN-Bio's HEP-lean media with 5% FCS. Throughout the experiment the cells were maintained at a flow rate of 1 μl/s. After 24 hours (Day 1) of seeding, the media was changed to HEP-lean media and the cells were incubated until day 4 to allow the cells to form microtissues. At day 4 post seeding, media was changed to HEP-fat media and treated with DMSO or NCT (5, 15, and 40 μM). Media was replaced on days 6 and 8. Cells were harvested on day 10 for RNA extraction and culture media was collected for ELISA analysis.
RT-PCR. […] Quantitative real time PCR (RT-PCR) analysis was performed using SYBR® Select Master Mix (Applied Biosystems) and an ABI 7900HT thermal cycler (Applied Biosystems, Thermo Fisher Scientific). Ct values were normalized to 18s rRNA and are expressed as fold change over samples from mice fed NC or cultured human hepatocytes without NCT.

## O=C(/C=C/c1ccc(O)c(O)c1)NCCc1ccc(O)cc1 [NCT, N-trans caffeoyltyramine]
  TNFα mRNA level in cultured human hepatocytes: decrease
